Reference: patent publication US20230094952A1, “Method for Culturing Hematopoietic Stem Cells” (Sumitomo Pharma Co., Ltd., priority 2019, published 2023)

Tested on: mouse long-term hematopoietic stem cells
Assay: Reproducibility and concentration dependence test: 1-week culture of sorted Hoxb5-tri-mCherry mouse long-term hematopoietic stem cells, flow cytometry
Type: cell-based
Conditions: day 7 of culture, n=2
Procedure, shortened: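 Hoxb5-tri-mCherry+ LT-HSCs (Lin−c-Kit+Sca-1+Flk2−CD34−/lo CD150+) were sorted from mouse bone marrow at 10 cells/well into StemSpan SFEM with SCF and TPO. Cells were cultured with compound for 1 week at 37°C, 5% CO2. Flow cytometry then measured KLS and mCherry+ fractions and cell counts.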

SMILES	KLS-positive rate (Table 4, compound 0.1 μM) [%]	Viable cell count (Table 4, compound 0.1 μM) [cell]	mCherry-positive rate (Table 4, compound 0.1 μM) [%]	KLS-positive rate (Table 4, compound 0.3 μM) [%]	Viable cell count (Table 4, compound 0.3 μM) [cell]	mCherry-positive rate (Table 4, compound 0.3 μM) [%]	KLS-positive rate (Table 4, compound 1 μM) [%]	Viable cell count (Table 4, compound 1 μM) [cell]	mCherry-positive rate (Table 4, compound 1 μM) [%]	KLS-positive rate (Table 4, compound 3 μM) [%]	Viable cell count (Table 4, compound 3 μM) [cell]	mCherry-positive rate (Table 4, compound 3 μM) [%]	KLS-positive rate (Table 4, compound 10 μM) [%]	Viable cell count (Table 4, compound 10 μM) [cell]	mCherry-positive rate (Table 4, compound 10 μM) [%]	other results
CO[C@H]1O[C@@H]2O[C@@]3(C)CC[C@H]4[C@H](C)CC[C@@H]([C@H]1C)[C@@]24OO3 [Example 1-30, artemether, reference compound]	35.3	238.0	71.2	38.4	184.0	100.0	40.1	135.5	99.0	57.4	44.5	100.0	71.4	65.0	98.2	KLS-positive rate (Table 3, compound 0.1 μM): 50.25%; Viable cell count (Table 3, compound 0.1 μM): 1109 cell; mCherry-positive rate (Table 3, compound 0.1 μM): 67.2%; KLS-positive rate (Table 3, compound 0.3 μM): 22.05%; Viable cell count (Table 3, compound 0.3 μM): 2632 cell; mCherry-positive rate (Table 3, compound 0.3 μM): 36.85%; KLS-positive rate (Table 3, compound 1 μM): 21.4%; Viable cell count (Table 3, compound 1 μM): 1170.5 cell; mCherry-positive rate (Table 3, compound 1 μM): 57.85%; KLS-positive rate (Table 3, compound 3 μM): 50.3%; Viable cell count (Table 3, compound 3 μM): 115 cell; mCherry-positive rate (Table 3, compound 3 μM): 98.05%; KLS-positive rate (Table 3, compound 10 μM): 65.9%; Viable cell count (Table 3, compound 10 μM): 108.5 cell; mCherry-positive rate (Table 3, compound 10 μM): 94.45%
COCCO[C@H]1O[C@@H]2O[C@@]3(C)CC[C@H]4[C@H](C)CC[C@@H]([C@H]1C)[C@@]24OO3 [Example 1-23, (3R,5aS,6R,8aS,9R,10S,12R,12aR)-10-(2-methoxyethoxy)-3,6,9-trimethyldecahydro-12H-3,12-epoxypyrano[4,3-j][1,2]benzodioxepine]	12.4	712.5	17.9	15.4	509.0	46.5	5.3	729.0	72.7	23.2	252.0	97.3	42.3	63.5	100.0	–
C[C@H]1[C@H](C(N)=O)O[C@@H]2O[C@@]3(C)CC[C@H]4[C@H](C)CC[C@@H]1[C@@]24OO3 [Example 1-16, (3R,5aS,6R,8aS,9R,10R,12R,12aR)-3,6,9-Trimethyldecahydro-12H-3,12-epoxypyrano[4,3-j][1,2]benzodioxepine-10-carboxamide]	13.3	504.5	6.8	11.6	388.5	29.2	33.4	310.0	68.2	9.2	182.5	92.4	52.6	29.0	99.0	–
C[C@H]1[C@H](c2ccco2)O[C@@H]2O[C@@]3(C)CC[C@H]4[C@H](C)CC[C@@H]1[C@@]24OO3 [Example 1-7, (3R,5aS,6R,8aS,9R,10R,12R,12aR)-10-(Furan-2-yl)-3,6,9-trimethyldecahydro-12H-3,12-epoxypyrano[4,3-j][1,2]benzodioxepine]	26.9	225.0	42.9	19.6	269.0	62.2	36.1	73.0	96.7	0.0	0.0	0.0	0.0	0.0	0.0	–
